Data as given in patent publication US11124788B2, “Asx-specific protein ligase” (NANYANG TECHNOLOGICAL UNIVERSITY, priority 2014, dated 2021).
Where two headings read alike, the source gives them in different places. Residues, ends and D or L forms follow the SMILES beside them. *: point of attachment. AMC = Cc1cc(=O)oc2cc(N*)ccc12; Cbz = O=C(OCc1ccccc1)*

Tests used:
butelase 1 [1] = assay: Michaelis-Menten kinetics of butelase 1 as a peptide cyclase; assay type: biochemical, Clitoria ternatea
jack bean legumain = target: T1, jack bean legumain (Canavalia ensiformis, UniProt P49046); assay: Hydrolysis of Z-AAN-AMC by jack bean legumain (positive control); assay type: biochemical; conditions: same experimental conditions, 30 h
T1 construct: purchased Takara Bio (Japan)
T1 sequence (P49046 36-475): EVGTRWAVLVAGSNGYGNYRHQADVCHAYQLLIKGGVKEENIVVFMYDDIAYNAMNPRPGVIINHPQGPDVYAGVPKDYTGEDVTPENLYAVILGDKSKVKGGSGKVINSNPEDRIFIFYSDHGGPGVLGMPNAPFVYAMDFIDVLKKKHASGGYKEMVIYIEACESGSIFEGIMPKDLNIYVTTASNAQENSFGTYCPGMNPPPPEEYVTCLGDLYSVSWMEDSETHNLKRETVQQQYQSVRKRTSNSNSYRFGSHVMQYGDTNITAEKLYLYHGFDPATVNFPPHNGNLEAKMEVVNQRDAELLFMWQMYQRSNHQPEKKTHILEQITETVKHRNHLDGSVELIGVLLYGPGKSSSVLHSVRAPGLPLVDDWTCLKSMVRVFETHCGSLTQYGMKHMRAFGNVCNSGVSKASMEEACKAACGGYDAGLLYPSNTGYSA

butelase 1 [2] = assay: Hydrolysis of Z-AAN-AMC by butelase 1 (asparaginyl endopeptidase activity); assay type: biochemical, Clitoria ternatea; conditions: 50 mM Z-AAN-AMC, 30 h
butelase 1 [3] = assay: In vitro cyclization of peptide/protein substrates by butelase 1 (HPLC/MS yield); assay type: biochemical, Clitoria ternatea
[4] = Storage stability of purified butelase 1; conditions: 30 days at 4° C.
[5] = Solubility of butelase 1 in water
[6] = butelase 1 cyclization, 37° C., 0.125 μM enzyme, 12 min (SA-kB1-NHV: 5 nM, 6 min)

Work on Apelin yielded a Km (butelase 1 [1]) of 6.7 ± 1.4 µM and a kcat (butelase 1 [1]) of 5.78 ± 0.25 s⁻¹.

With `Cc1cc(=O)oc2cc(NC(=O)[C@H](CC(N)=O)NC(=O)[C@H](C)NC(=O)[C@H](C)NC(=O)OCc3ccccc3)ccc12` [Z-AAN-AMC, N-carbobenzyloxy-Ala-Ala-Asn-7-amido-4-methylcoumarin] (Cbz-Ala-Ala-Asn-{AMC}) the “Hydrolysis of Z-AAN-AMC” value (jack bean legumain) was “completely hydrolyzed” and the “Hydrolyzed product formed (RP-HPLC)” value (butelase 1 [2]) was less than 3%.

In the case of Neuromedin ∪, the Km (butelase 1 [1]) is reported as 8.7 ± 2.1 µM and the kcat (butelase 1 [1]) is reported as 5.78 ± 0.36 s⁻¹.

For “SFTI-NHV: SEQ ID NO:135, GRCTKSIPPICFPNHV; 16-residue linear substrate”, the Km (butelase 1 [1]; [6]) was 51 ± 4 µM, the kcat (butelase 1 [1]; [6]) was 0.6 ± 0.02 s⁻¹ and the kcat (butelase 1 [1]; butelase 1 cyclization, 37° C., 0.125 μM enzyme, 12 min (SA-kB1-NHV: 5 nM, 6 min), listed as SFT1-NHV) was 0.6 ± 0.02 s⁻¹. The “Cyclization efficiency, SFTI-NHV compared with SFTI-DHV” value (butelase 1 [3]) was “significantly more efficient”.

B1: butelase 1: Asx-specific peptide ligase/cyclase isolated from Clitoria ternatea, amino acid sequence SEQ ID NO:1 (protein, listed as Clitoria ternatea)
chain: VEGTRWAVLVAGSKGYVNYRHQADVCHAYQILKKGGLKDENIIVFMYDDIAYNESNPHPGVIINHPYGSDVYKGVPKDYVGEDINPPNFYAVLLANKSALTGTGSGKVLDSGPNDHVFIYYTDHGGAGVLGMPSKPYIAASDLNDVLKKKHASGTYKSIVFYVESCESGSMFDGLLPEDHNIYVMGASDTGESSWVTYCPLQHPSPPPEYDVCVGDLFSVAWLEDCDVHNLQTETFQQQYEVVKNKTIVALIEDGTHVVQYGDVGLSKQTLFVYMGTDPANDNNTFTDKNSLGTPRKAVSQRDADLIHYWEKYRRAPEGSSRKAEAKKQLREVMAHRMHIDN
In the case of B1, the “Stability of enzyme activity” value [4] is reported as “minimal loss of activity”, the “Solubility in water (concentration achieved)” value [5] is reported as 10000 µg/mL and the Catalytic activities (butelase 1 [1]; highest value stated in the summary) is reported as ≤ 542,000 M^−s^−1. For the same molecule, the “Catalytic rate relative to sortase A” value (butelase 1 [3]; GFP as a model protein) was ~10,000.
